In the supplement of paper PMC11061612:

Experiments:
Experiment in all cases: Bliss excess, mean over the matrix (fraction); higher = more synergy
[1] = test system: KARPAS-620 (Plasma Cell Myeloma)
Method in brief: (§1)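 Cell lines in DMEM/F12 or RPMI with 10% FBS were plated in 1536-well plates, held 24 hours at 37°C, 5% CO2, then given two-drug dose matrices for 72 hours (DMSO typically 0.2%). Viability was read by CellTiter-Glo 2.0 luminescence and scaled as inhibition from 0 (vehicle wells) to 1 (blank wells). Combination Emax is the second-highest inhibition in the matrix; Bliss excess is observed combination effect minus expected EA + EB − EA·EB, EA and EB being single-agent effects.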

[2] = test system: DB (B-Cell Non-Hodgkin's Lymphoma)
Method in brief: as §1

[3] = test system: SW1088 (Low Grade Glioma)
Method in brief: as §1

[4] = test system: MDA-MB-231 (Breast Carcinoma)
Method in brief: as §1

[5] = test system: MFH-ino (Other Solid Carcinomas)
Method in brief: as §1

[6] = test system: HT-29 (Colorectal Carcinoma)
Method in brief: as §1

[7] = test system: OCI-AML2 (Acute Myeloid Leukemia)
Method in brief: as §1

[8] = test system: KATOIII (Gastric Carcinoma)
Method in brief: as §1

[9] = test system: NALM-6 (B-Lymphoblastic Leukemia)
Method in brief: as §1

SK-N-FI (Neuroblastoma) = test system: SK-N-FI (Neuroblastoma)
Method in brief: as §1

NCI-H2595 (Mesothelioma) = test system: NCI-H2595 (Mesothelioma)
Method in brief: as §1

[10] = test system: U-266 (Plasma Cell Myeloma)
Method in brief: as §1

[11] = test system: TE-5 (Esophageal Squamous Cell Carcinoma)
Method in brief: as §1

[12] = test system: SW1783 (Low Grade Glioma)
Method in brief: as §1

[13] = test system: G-292-Clone-A141B1 (Osteosarcoma)
Method in brief: as §1

[14] = test system: NCI-H211 (Small Cell Lung Carcinoma)
Method in brief: as §1

[15] = test system: IHH-4 (Thyroid Gland Carcinoma)
Method in brief: as §1

DSH1 (Bladder Carcinoma) = test system: DSH1 (Bladder Carcinoma)
Method in brief: as §1

[16] = test system: SW1990 (Pancreatic Carcinoma)
Method in brief: as §1

[17] = test system: LS-513 (Colorectal Carcinoma)
Method in brief: as §1

Row | Structure (SMILES) | Bliss excess [1] | Bliss excess [2] | Bliss excess [3] | Bliss excess [4] | Bliss excess [5] | Bliss excess [6] | Bliss excess [7] | Bliss excess [8] | Bliss excess [9] | Bliss excess (SK-N-FI (Neuroblastoma)) | Bliss excess (NCI-H2595 (Mesothelioma)) | Bliss excess [10] | Bliss excess [11] | Bliss excess [12] | Bliss excess [13] | Bliss excess [14] | Bliss excess [15] | Bliss excess (DSH1 (Bladder Carcinoma)) | Bliss excess [16] | Bliss excess [17]
1 | C=CCn1c(=O)c2cnc(Nc3ccc(N4CCN(C)CC4)cc3)nc2n1-c1cccc(C(C)(C)O)n1 [AZD1775] + CCc1c2c(nc3ccc(O)cc13)-c1cc3c(c(=O)n1C2)COC(=O)[C@]3(O)CC [SN-38] (first compound max 1 µM, partner max 0.3 µM) | -0.0145 | -0.0366 | -0.0641 | 0.0031 | -0.0756 | 0.027 | -0.0278 | -0.0948 | -0.0563 | -0.0038 | -0.0096 | -0.0555 | -0.0583 | -0.0817 | 0.023 | -0.0576 | -0.0485 | -0.0654 | -0.0908 | -0.0867
2 | CN(CCO)CC[C@H](CSc1ccccc1)Nc1ccc(S(=O)(=O)NC(=O)c2ccc(N3CCC([C@@H](O)c4ccccc4-c4ccc(Cl)cc4)CC3)cc2)cc1S(=O)(=O)C(F)(F)F [AZD4320] + Nc1ccn([C@@H]2O[C@H](CO)[C@@H](O)C2(F)F)c(=O)n1 [Gemcitabine] (first compound max 1 µM, 7x7, partner max 0.3 µM) | -0.0168 | -0.029 | -0.0628 | -0.0245 | -0.0252 | 0.0191 | 0.0007 | 0.0213 | -0.0024 | 0.0077 | -0.0542 | 0.0421 | 0.0559 | 0.0546 | -0.0015 | 0.0135 | 0.0132 | 0.0381 | 0.0103 | -0.0318
3 | CN(CCO)CC[C@H](CSc1ccccc1)Nc1ccc(S(=O)(=O)NC(=O)c2ccc(N3CCC([C@@H](O)c4ccccc4-c4ccc(Cl)cc4)CC3)cc2)cc1S(=O)(=O)C(F)(F)F [AZD4320] + CC(=O)O[C@H]1C(=O)[C@@]2(C)[C@H]([C@H](OC(=O)c3ccccc3)[C@]3(O)C[C@H](OC(=O)[C@H](O)[C@@H](NC(=O)c4ccccc4)c4ccccc4)C(C)=C1C3(C)C)[C@]1(OC(C)=O)CO[C@@H]1C[C@@H]2O [Paclitaxel] (first compound max 1 µM, 7x7, partner max 3 µM) | 0.0111 | 0.043 | 0.0303 | 0.111 | 0.0474 | 0.0034 | -0.0016 | 0.168 | 0.013 | -0.025 | 0.0192 | 0.0026 | 0.176 | 0.0754 | 0.157 | 0.0259 | -0.0267 | 0.163 | 0.329 | -0.0136
4 | C[C@@H]1COCCN1c1cc(C2([S@](C)(=N)=O)CC2)nc(-c2ccnc3[nH]ccc23)n1 [AZD6738] + C1CC(C1)(C(=O)[O-])C(=O)[O-].N.N.[Pt+2] [Carboplatin] (first compound max 10 µM, 7x7, partner max 10 µM) | -0.0135 | -0.0019 | -0.0426 | -0.0294 | -0.0397 | -0.0194 | -0.0318 | -0.0879 | -0.0122 | -0.049 | -0.0413 | -0.0751 | -0.0163 | -0.0337 | 0.0001 | -0.0292 | 0.0159 | -0.0559 | -0.0997 | -0.0225
5 | N#Cc1cnc(Nc2cc(NC[C@H]3CNCCO3)c(C(F)(F)F)cn2)cn1 [SRA737] + C=CCn1c(=O)c2cnc(Nc3ccc(N4CCN(C)CC4)cc3)nc2n1-c1cccc(C(C)(C)O)n1 [AZD1775] (first compound max 10 µM, partner max 1 µM) | 0.133 | 0.0626 | 0.0681 | 0.0607 | -0.013 | 0.0394 | 0.071 | -0.0327 | 0.11 | 0.0703 | -0.0688 | 0.0474 | 0.0481 | 0.0153 | -0.009 | 0.169 | 0.14 | -0.0441 | -0.0149 | 0.0476
6 | C[C@@H](Nc1cc(F)cc(F)c1)c1cc(C(=O)N(C)C)cc2c(=O)cc(N3CCOCC3)oc12 [AZD8186] + CC(=O)c1c(C)c2cnc(Nc3ccc(N4CCNCC4)cn3)nc2n(C2CCCC2)c1=O [Palbociclib] (first compound max 10 µM, 7x7, partner max 10 µM) | 0.15 | 0.0797 | 0.0658 | 0.0305 | 0.0173 | 0.0614 | 0.132 | 0.0615 | 0.0084 | 0.0089 | -0.0917 | -0.0285 | 0.0301 | 0.0594 | -0.0001 | 0.2 | 0.125 | 0.104 | -0.0062 | 0.0084
7 | Cc1nc(-c2cn3c(n2)-c2ccc(-c4cnn(C(C)(C)C(N)=O)c4)cc2OCC3)n(C(C)C)n1 [Taselisib] + O=C(Nc1ccc2[nH]nc(-c3ccncc3)c2c1)[C@@H]1CCN(CC(=O)N2CCN(c3ccc(-c4ncccn4)cc3)CC2)C1 [SCH772984] (first compound max 10 µM, 7x7, partner max 5 µM) | 0.116 | 0.0783 | -0.0867 | 0.0595 | -0.0018 | 0.111 | 0.132 | -0.0189 | 0.017 | 0.0465 | -0.0324 | 0.0774 | 0.113 | -0.0071 | -0.0258 | 0.126 | 0.0056 | 0.0051 | 0.0724 | -0.0377
8 | C[C@@H](Oc1cc(-c2cnn(C3CCNCC3)c2)cnc1N)c1c(Cl)ccc(F)c1Cl [Crizotinib] + CC1=C(C(=CC=C1)Cl)NC(=O)C2=CN=C(S2)NC3=CC(=NC(=N3)C)N4CCN(CC4)CCO [Dasatinib] (first compound max 10 µM, 7x7, partner max 2 µM) | 0.0032 | -0.0805 | 0.016 | 0.0116 | 0.0577 | -0.0002 | -0.0271 | -0.0263 | 0.022 | -0.0425 | 0.0519 | -0.0102 | 0.0287 | 0.103 | 0.028 | -0.0089 | 0.0456 | -0.0536 | -0.0312 | -0.0485
9 | C[C@@H](Oc1cc(-c2cnn(C3CCNCC3)c2)cnc1N)c1c(Cl)ccc(F)c1Cl [Crizotinib] + Cn1cnc2c(F)c(Nc3ccc(Br)cc3Cl)c(C(=O)NOCCO)cc21 [Selumetinib] (first compound max 10 µM, 7x7, partner max 10 µM) | 0.0729 | -0.0472 | -0.0256 | 0.0323 | -0.026 | -0.018 | -0.0036 | -0.0081 | -0.0149 | 0.0321 | -0.064 | -0.021 | -0.0366 | -0.0486 | -0.0223 | -0.0327 | -0.0246 | -0.117 | -0.0626 | -0.0167
10 | O=C(c1cc(Cc2n[nH]c(=O)c3ccccc23)ccc1F)N1CCN(C(=O)C2CC2)CC1 [Olaparib] + CC1(C)CCC(CN2CCN(c3ccc(C(=O)NS(=O)(=O)c4ccc(NCC5CCOCC5)c([N+](=O)[O-])c4)c(Oc4cnc5[nH]ccc5c4)c3)CC2)=C(c2ccc(Cl)cc2)C1 [Venetoclax] (first compound max 10 µM, 7x7, partner max 1 µM) | 0.003 | 0.0522 | -0.0611 | 0.0001 | -0.0622 | -0.0304 | 0.0964 | -0.0146 | 0.104 | -0.0527 | -0.0577 | 0.0388 | -0.0458 | -0.0349 | -0.0566 | 0.0865 | -0.0118 | -0.0401 | -0.0509 | -0.0498
11 | Cc1cc2ncnn2cc1Nc1ncc2c(n1)n(C1CCOCC1)c(=O)n2C [AZD7648] + COc1cc([C@@H]2c3cc4c(cc3[C@@H](O[C@@H]3O[C@@H]5CO[C@@H](C)O[C@H]5[C@H](O)[C@H]3O)[C@H]3COC(=O)[C@H]23)OCO4)cc(OC)c1O [Etoposide] (first compound max 10 µM, 7x7, partner max 10 µM) | 0.0051 | 0.0998 | 0.032 | 0.0776 | 0.0513 | 0.0162 | 0.175 | -0.0224 | 0.0869 | -0.0258 | 0.0252 | -0.0446 | -0.0089 | 0.0614 | 0.0701 | 0.0313 | 0.185 | 0.0627 | 0.0302 | 0.111
12 | O=C(c1cc(Cc2n[nH]c(=O)c3ccccc23)ccc1F)N1CCN(C(=O)C2CC2)CC1 [Olaparib] + Cc1c2c(nn1C)CSCc1cc(n(C)n1)CSc1cc(c3ccccc3c1)OCCCc1c(C(=O)O)n(C)c3c-2c(Cl)ccc13 [AZD5991] (first compound max 10 µM, 7x7, partner max 1 µM) | 0.0121 | 0.0141 | -0.0383 | -0.0354 | -0.069 | -0.0333 | 0.0775 | -0.0852 | -0.039 | -0.0321 | -0.0396 | -0.0244 | -0.0427 | -0.0388 | -0.0462 | 0.024 | -0.0093 | -0.0097 | -0.0296 | -0.0082
13 | C[C@@H]1COCCN1c1cc(C2([S@](C)(=N)=O)CC2)nc(-c2ccnc3[nH]ccc23)n1 [AZD6738] + Nc1ccn([C@@H]2O[C@H](CO)[C@@H](O)C2(F)F)c(=O)n1 [Gemcitabine] (first compound max 10 µM, 7x7, partner max 0.3 µM) | 0.135 | -0.0172 | -0.0399 | 0.0736 | -0.0585 | 0.0492 | 0.0351 | 0.0057 | -0.0252 | 0.0769 | 0.0326 | 0.057 | -0.0102 | -0.0109 | 0.0421 | 0.0304 | 0.0816 | 0.0108 | -0.0028 | -0.0336
